# Results as given in PubChem BioAssay AID2060907 (Molecular Pharmacology Branch, DTP, NCI, 2025).
# pIC50: −log10 of the molar value.
# System: 388556-164-R-J1-PDC complex spheroid viability
# Assay: Anticancer human tumor 388556-164-R-J1-PDC patient-derived colon adenocarcinoma cell line growth inhibition [RAS]
# Details: for pIC50: curve of first compound; for viability, T/C: stronger effect = lower value
# Text: RAS pathway inhibitors in Combinations in Complex Spheroids
# A high-throughput screen of multi-cell type tumor spheroids was designed to identify active combinations of RAS pathway inhibitors and targeted small molecules. Complex spheroids include a stromal component modeled by human endothelial cells (HUVEC) and fibroblasts modeled by human mesenchymal stem cells (MSCs). The concentration ranges selected for each drug and investigational agent were based upon clinically achievable concentrations if the clinical Cmax of the agent was known.
# Compounds. The drugs and investigational agents: abemaciclib (NSC768073), cobimetinib (NSC768068), divarasib (GDC6063, NSC841802), docetaxel (NSC628503), GDC-1971 (RLY-1971, NSC841576), gemcitabine (NSC613327), inavolisib (NSC800729), ipatasertib (NSC767898), KB-0742 (NSC834161), MRTX-1133 (NSC836407), osimertinib (NSC779217), RMC-4630 (NSC839698), RMC-6236 (NSC851965), RMC-6291 (NSC852671), Ro-3306 (NSC812927), sapanisertib (NSC764658), SN-38 (NSC673596), staurosporine (NSC755774), SY5609 (NSC837396), and tovorafenib (DAY101, NSC766906), were obtained from the National Cancer Institute (NCI) Developmental Therapeutics Program Chemical Repository. The FDA-approved anticancer drug set is available from the NCI Developmental Therapeutics Program. […] The stock solutions were prepared in dimethyl sulfoxide (DMSO, Sigma-Aldrich, St. Louis, MO, cat. D2650) at 800-fold the tested concentration and stored at -70 degrees C prior to their use. All drugs and investigational agents were tested over a range starting from a high concentration at or near the clinical Cmax and decreasing in half-log increments. If the clinical Cmax for an agent had not been determined, the highest concentration tested was 10 microM.
# Cell Culture. All cells were maintained in an incubator at 37 degrees C and 5% CO2 with 95% humidity. The PDC lines were cultured according to standard operating procedures established by the NCI PDMR. All PDCs were thawed and cultured in Matrigel-coated flasks prepared with a working solution of 1X Ham's F-12 nutrient mix, without supplementation (Invitrogen, Waltham, MA, cat. 11765054), 100 U/mL penicillin-streptomycin (Invitrogen, cat. 15140122), and 2.5% Matrigel (Corning Inc., Corning, NY, cat. 354248) for the first three passages. The 362531-283-R-J2-PDC and 782815-120-R-J1-PDC lines were cultured in 6C/Colon 1B media, which includes advanced DMEM/F-12 (Thermo Fisher Scientific, cat. 12634028), 10 mM HEPES (Thermo Fisher Scientific, cat. 15630080), 1X GlutaMAX supplement (Thermo Fisher Scientific, cat. 35050061), 0.1 mg/mL primocin (InvivoGen, San Diego, CA, cat. ant-pm-2), 10% defined fetal bovine serum, heat inactivated (HyClone Laboratories Inc., Logan, UT, cat. SH30070.03HI), 50% L-WRN conditioned media (ATCC, cat. CRL-3276), 1.25 mM N-Acetyl-L-cysteine (Sigma-Aldrich, cat. A9165), 10 mM nicotinamide (Sigma-Aldrich, cat. N0636), 1X B-27 supplement (Thermo Fisher Scientific, cat. 17504044), 1X N-2 supplement (Thermo Fisher Scientific, cat. 17502048), 50 ng/mL human EGF (Thermo Fisher Scientific, cat. PHG0311), and 10 microM Y-27632 dihydrochloride (Tocris Bioscience, cat. 1254). The K12877-001-R-J1-PDC line was cultured in 6I media, which includes all 6C/Colon 1B media plus 10 ng/mL human FGF-10 (PeproTech, cat. 100-26), 1 ng/mL human FGF-2 (PeproTech, cat. 100-18B), 1 µM prostaglandin E2 (Tocris Bioscience, cat. 2296), […] hydrocortisone (Sigma-Aldrich, cat. H4001), and […] bovine insulin (Sigma-Aldrich, cat. I6634). The K86415-001-R-J1-PDC line was cultured in 6D media, which includes all 6C/Colon 1B media components minus the L-WRN conditioned media. The 485176-168-R4-J1-PDC was cultured in PANC media, which includes all 6C/Colon 1B media plus 100 ng/mL human FGF-10 (PeproTech, cat. 100-26), 500 nM SB-431542 (Selleckchem, cat. S1067), and 10 nM gastrin (Tocris Bioscience, cat. 3006). […]
# [1] = second compound 0.0316 µM, first compound 0.0316 µM
# [2] = second compound 0.0316 µM, first compound 0.1 µM
# [3] = second compound 0.0316 µM, first compound 0.316 µM
# [4] = second compound 0.0316 µM, first compound 1 µM
# [5] = second compound 0.0316 µM, first compound 3.16 µM
# [6] = second compound 0.0316 µM, first compound 10 µM
# [7] = second compound 0.1 µM, first compound 0.0316 µM
# [8] = second compound 0.1 µM, first compound 0.1 µM
# [9] = second compound 0.1 µM, first compound 0.316 µM
# [10] = second compound 0.1 µM, first compound 1 µM
# [11] = second compound 0.1 µM, first compound 3.16 µM
# [12] = second compound 0.1 µM, first compound 10 µM
# [13] = second compound 0.316 µM, first compound 0.0316 µM
# [14] = second compound 0.316 µM, first compound 0.1 µM
# [15] = second compound 0.316 µM, first compound 0.316 µM
# [16] = second compound 0.316 µM, first compound 1 µM
# [17] = second compound 0.316 µM, first compound 3.16 µM
# [18] = second compound 0.316 µM, first compound 10 µM
# [19] = second compound 1 µM, first compound 0.0316 µM
# [20] = second compound 1 µM, first compound 0.1 µM
# [21] = second compound 1 µM, first compound 0.316 µM
# [22] = second compound 1 µM, first compound 1 µM
# [23] = second compound 1 µM, first compound 3.16 µM
# [24] = second compound 1 µM, first compound 10 µM
# [25] = second compound 3.16 µM, first compound 0.0316 µM
# [26] = second compound 3.16 µM, first compound 0.1 µM
# [27] = second compound 3.16 µM, first compound 0.316 µM
# [28] = second compound 3.16 µM, first compound 1 µM
# [29] = second compound 3.16 µM, first compound 3.16 µM
# [30] = second compound 3.16 µM, first compound 10 µM
# [31] = second compound 10 µM, first compound 0.0316 µM
# [32] = second compound 10 µM, first compound 0.1 µM
# [33] = second compound 10 µM, first compound 0.316 µM
# [34] = second compound 10 µM, first compound 1 µM
# [35] = second compound 10 µM, first compound 3.16 µM
# [36] = second compound 10 µM, first compound 10 µM
# 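Note: spheroids exposed to compound for 7 days before readout.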
# 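Throughout, for viability, T/C: 100% = DMSO vehicle control luminescence.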
structure (smiles),measurement,setting,value
CCC(CC)c1cc(NC2CCC(N)C2)n2nccc2n1 (stereo unspecified) + C#Cc1c(F)ccc2cc(O)cc(-c3ncc4c(N5CC6CCC(C5)N6)nc(OCC56CCCN5CC(F)C6)nc4c3F)c12,pIC50,second compound 0.0316 µM,5.48
same,pIC50,second compound 0.1 µM,5.64
same,pIC50,second compound 0.316 µM,5.59
same,pIC50,second compound 1 µM,5.60
same,pIC50,second compound 3.16 µM,5.71
same,pIC50,second compound 10 µM,5.88
same,"viability, T/C",[1],98.2%
same,"viability, T/C",[2],97.2%
same,"viability, T/C",[3],109%
same,"viability, T/C",[4],101%
same,"viability, T/C",[5],50.7%
same,"viability, T/C",[6],32.1%
same,"viability, T/C",[7],98.2%
same,"viability, T/C",[8],99.1%
same,"viability, T/C",[9],102%
same,"viability, T/C",[10],94.7%
same,"viability, T/C",[11],33.4%
same,"viability, T/C",[12],30.8%
same,"viability, T/C",[13],102%
same,"viability, T/C",[14],98%
same,"viability, T/C",[15],83.1%
same,"viability, T/C",[16],96.7%
same,"viability, T/C",[17],40.3%
same,"viability, T/C",[18],27.3%
same,"viability, T/C",[19],82.5%
same,"viability, T/C",[20],83.3%
same,"viability, T/C",[21],68.8%
same,"viability, T/C",[22],86.8%
same,"viability, T/C",[23],42%
same,"viability, T/C",[24],24.2%
same,"viability, T/C",[25],73.9%
same,"viability, T/C",[26],69.7%
same,"viability, T/C",[27],66.3%
same,"viability, T/C",[28],78.8%
same,"viability, T/C",[29],33.2%
same,"viability, T/C",[30],20.8%
same,"viability, T/C",[31],64.1%
same,"viability, T/C",[32],65.6%
same,"viability, T/C",[33],66.4%
same,"viability, T/C",[34],60.4%
same,"viability, T/C",[35],16.9%
same,"viability, T/C",[36],15.5%
Cc1nc(N2CCC3(CC2)COC(C)C3N)c(CO)nc1Sc1ccnc(N)c1Cl (stereo unspecified) + C#Cc1c(F)ccc2cc(O)cc(-c3ncc4c(N5CC6CCC(C5)N6)nc(OCC56CCCN5CC(F)C6)nc4c3F)c12,pIC50,second compound 0.0316 µM,5.64
same,pIC50,second compound 0.1 µM,5.63
same,pIC50,second compound 0.316 µM,6.08
same,pIC50,second compound 1 µM,6.04
same,pIC50,second compound 3.16 µM,6.40
same,pIC50,second compound 10 µM,7.02
same,"viability, T/C",[1],92%
same,"viability, T/C",[2],85.2%
same,"viability, T/C",[3],79.8%
same,"viability, T/C",[4],55.2%
same,"viability, T/C",[5],51%
same,"viability, T/C",[6],42.3%
same,"viability, T/C",[7],98.4%
same,"viability, T/C",[8],89.7%
same,"viability, T/C",[9],71.8%
same,"viability, T/C",[10],62.5%
same,"viability, T/C",[11],45%
same,"viability, T/C",[12],36.9%
same,"viability, T/C",[13],89.2%
same,"viability, T/C",[14],81.4%
same,"viability, T/C",[15],47.3%
same,"viability, T/C",[16],51.8%
same,"viability, T/C",[17],45.2%
same,"viability, T/C",[18],28.8%
same,"viability, T/C",[19],80%
same,"viability, T/C",[20],70.5%
same,"viability, T/C",[21],58.9%
same,"viability, T/C",[22],49.1%
same,"viability, T/C",[23],39.4%
same,"viability, T/C",[24],26.2%
same,"viability, T/C",[25],66.1%
same,"viability, T/C",[26],50.8%
same,"viability, T/C",[27],54.3%
same,"viability, T/C",[28],46.6%
same,"viability, T/C",[29],33.6%
same,"viability, T/C",[30],24%
same,"viability, T/C",[31],61.1%
same,"viability, T/C",[32],45.5%
same,"viability, T/C",[33],44%
same,"viability, T/C",[34],32.1%
same,"viability, T/C",[35],22%
same,"viability, T/C",[36],21.3%
NC1c2ccccc2OC12CCN(c1cnc3c(N4CCCc5ncccc54)n[nH]c3n1)CC2 (stereo unspecified) + C#Cc1c(F)ccc2cc(O)cc(-c3ncc4c(N5CC6CCC(C5)N6)nc(OCC56CCCN5CC(F)C6)nc4c3F)c12,pIC50,second compound 0.0316 µM,6.44
same,pIC50,second compound 0.1 µM,6.83
same,pIC50,second compound 0.316 µM,6.80
same,pIC50,second compound 1 µM,7.07
same,pIC50,second compound 3.16 µM,> 7.50
same,pIC50,second compound 10 µM,> 7.50
same,"viability, T/C",[1],58.8%
same,"viability, T/C",[2],59.1%
same,"viability, T/C",[3],50.1%
same,"viability, T/C",[4],41.8%
same,"viability, T/C",[5],35.2%
same,"viability, T/C",[6],31.3%
same,"viability, T/C",[7],65.7%
same,"viability, T/C",[8],55.6%
same,"viability, T/C",[9],43.8%
same,"viability, T/C",[10],32.5%
same,"viability, T/C",[11],36.8%
same,"viability, T/C",[12],28.4%
same,"viability, T/C",[13],63.6%
same,"viability, T/C",[14],58.2%
same,"viability, T/C",[15],38.2%
same,"viability, T/C",[16],33%
same,"viability, T/C",[17],26.6%
same,"viability, T/C",[18],21%
same,"viability, T/C",[19],54.3%
same,"viability, T/C",[20],49.7%
same,"viability, T/C",[21],32%
same,"viability, T/C",[22],27.2%
same,"viability, T/C",[23],27.7%
same,"viability, T/C",[24],20.2%
same,"viability, T/C",[25],51.2%
same,"viability, T/C",[26],35.9%
same,"viability, T/C",[27],35%
same,"viability, T/C",[28],29.3%
same,"viability, T/C",[29],26.6%
same,"viability, T/C",[30],18.8%
same,"viability, T/C",[31],39%
same,"viability, T/C",[32],31%
same,"viability, T/C",[33],24.1%
same,"viability, T/C",[34],23.9%
same,"viability, T/C",[35],18.6%
same,"viability, T/C",[36],16.9%
